# US8945540B2, “Compositions for enhancing the antibacterial activity of myeloperoxidase and methods of use thereof” (Exoxemis, Inc., priority 2008, dated 2015)
# Like-named read-outs stand apart in the source and are kept apart here.
# Assays:
# [1] = tested on: Staphylococcus aureus; assay: Microbicidal activity of the myeloperoxidase system (p-MPO, glucose oxidase, glucose) with amino acids in the presence of blood, CFU plate counts; synergy determination from these CFU; format: cell-based; settings: for Average Viability CFU/ml 60 min / Log Reduction 60 min / Log 10 (CFU + 1) Survivors 60 min: MPO 38 U/ml, GO 33.3 U/ml; for Average Viability CFU/ml 50 min / Log Reduction 50 min: MPO 4.7 U/ml, GO 4.2 U/ml
# Description: Bacterial suspensions, specifically Staphylococcus aureus in this example, were prepared by the shake flask method to achieve late log to early stationary phase growth. Bacteria were grown 24 hours in trypticase soy broth (TSB) at 35° C. The cultures were centrifuged at 4,000 rpm for 10 minutes and the supernatants removed. The pellet was collected and washed twice with sterile 0.9% normal saline (NS). The washed microorganisms were suspended and diluted with normal saline to a 3 McFarland standard, i.e., approximately 10^9 bacteria colony forming units (CFU) per mL. Actual colony counts are confirmed by serial dilutions (10^−1 to 10^−5 or 10^−6) plated on TSA and incubated overnight at 35° C. To obtain an approximate final working target inoculum of 10^7 CFU/mL, 15 microliters of organisms per mL of final reaction mixture are used.
# Glucose oxidase (GO) from Aspergillus Niger was purchased from Biozyme, Inc., UK, Cat #GO3A, 270 U/mg). Porcine Myeloperoxidase (p-MPO) (Exoxemis, Inc., Little Rock, Ark. U.S.A., 375 U/mg). Sterile stock solutions of D-glucose and sodium chloride were prepared and used at a final concentration of 150 mM each. L-Lysine hydrochloride (Spectrum Chemical Cat #L1142) was prepared as a 100 mM stock solution. Catalase (Sigma, Cat #C-40) was prepared as a 1% stock solution in sterile 0.9% normal saline. Blood was collected by venipuncture and used as whole blood within the same day.
# Staphylococcus aureus were used to give a final target concentration of 2-3×10^7 CFU (7.4 log 10) per mL and venous whole blood was used to give a final concentration of 3%. Glucose was added to the reaction mixtures to a final concentration of 150 mM, which initiated the microbicidal reaction. The final volume of the reaction mixtures was 1 mL. The reactions were allowed to run from 30 minutes to 2 hours, as needed, at room temperature or at 37° C. in a dry bath. At the specified time points the reaction mixtures were treated with 100 microliters of a catalase solution, containing a minimum of 100 units/μL, to consume remaining peroxide and terminate the oxidative killing. Serial dilution plate counts were performed from the contents of each vial in sterile saline and inoculated onto trypticase soy agar (TSA) for quantitative culture. Plates were then incubated at 37° C. and counts taken at 24 hours. […] The results are shown in Table 1, as the average of 2 replicates.
# The amino acids alone, in the absence of MPO were tested to rule out their microbicidal activity. The results are shown in Table 2 to Table 6, as the average of 2 replicates.
# The amino acid analogues alone, in the absence of MPO, were tested to rule out their microbicidal activity. […]
# The effect of two-way combinations of individual amino acids with L-isoleucine, as potential enhancing agents, for MPO microbicidal action in the presence of blood, was therefore examined by following the procedure of Example 5.
# The Actual CFU observed for the pair is then divided by the Predicted CFU and multiplied by 100 to calculate the % of Predicted value. This value is then to be compared to the threshold value, discussed in the next section, to determine whether the pair are synergistic, antagonistic, or additive.
# Calculation of appropriate threshold values for determination of synergism and antagonism was based upon the variability of replicated CFU survivor measures.
# [2] = tested on: Staphylococcus aureus; assay: Control: microbicidal activity of the amino acid or analogue alone (no glucose, MPO, glucose oxidase) in the presence of blood; format: cell-based; settings: for log reduction at 5000 µM: Staphylococcus aureus, 1 h, read-out: Log Reduction 60 min
# Source text: As a control to determine the microbicidal activity of the amino acids alone, the foregoing procedure was followed without replication, except in the absence of glucose, MPO, and glucose oxidase.
# [3] = MPO 100 μg/mL, AA 20 mM, 30 min
# [4] = MPO 100 μg/mL, AA 20 mM, 60 min
# [5] = Table 5, amino acid 5 mM (none: 0 mM), blood
# [6] = Table 10, single amino acid 2.5 mM, in the presence of blood, 50 min
# [7] = Table 11, single amino acid 2.5 mM, in the presence of blood, 50 min
# [8] = Table 13, single amino acid 2.5 mM, in the presence of blood, 50 min
# [9] = Table 14, single amino acid 2.5 mM, in the presence of blood, 50 min
# [10] = Table 19, amino acid (racemic, L- or D-form) 2.5 mM, 50 min
# [11] = amino acid alone 5 mM, MPO 0, GO 0, no glucose, blood, without replication
# [12] = Table 2, amino acid 5 mM (none: 0 mM), blood
# [13] = single amino acid 2.5 mM, blood
# [14] = Table 4, amino acid 5 mM (none: 0 mM), blood
# [15] = Table 7, amino acid analogue 5 mM, blood
# [16] = amino acid analogue alone 5 mM, MPO 0, GO 0, no glucose, blood
# [17] = Table 3, amino acid 5 mM (none: 0 mM), blood
# [18] = Table 19, amino acid 3.5 mM, 50 min
Structure (SMILES),"Log 10 (CFU + 1) Survivors ([1]; MPO 25 μg/mL, AA 5 mM, 30 min)","Log 10 (CFU + 1) Survivors ([1]; MPO 25 μg/mL, AA 5 mM, 60 min)","Log 10 (CFU + 1) Survivors ([1]; MPO 25 μg/mL, AA […], 30 min)","Log 10 (CFU + 1) Survivors ([1]; MPO 25 μg/mL, AA […], 60 min)","Log 10 (CFU + 1) Survivors ([1]; MPO 100 μg/mL, AA 5 mM, 30 min)","Log 10 (CFU + 1) Survivors ([1]; MPO 100 μg/mL, AA 5 mM, 60 min)","Log 10 (CFU + 1) Survivors [1, 3]","Log 10 (CFU + 1) Survivors [1, 4]","Average Viability CFU/ml 50 min [1, 6] [CFU/ml]","Log Reduction 50 min [1, 6]","log reduction at 5000 µM [2, 11]","Average Viability CFU/ml 60 min [2, 11] [CFU/ml]","Average Viability CFU/ml 60 min [1, 15] [CFU/ml]","Log Reduction 60 min [1, 15]","Average Viability CFU/ml 60 min [2, 16] [CFU/ml]","Average Viability CFU/ml 60 min [1, 17] [CFU/ml]","Log 10 (CFU + 1) Survivors 60 min [1, 17]","Log Reduction 60 min [1, 17]",also measured
N[C@H](Cc1ccccc1)C(=O)O [D-Phenylalanine],5.1,0.0,7.2,4.9,0.0,0.0,0.0,0.0,7950000,0.5,0,24200000,,,,,,,"Average Viability CFU/ml 60 min [1, 5]: 0 CFU/ml; Log Reduction 60 min [1, 5]: 7.4; Average Viability CFU/ml 50 min [1, 7]: 9300000 CFU/ml; Log Reduction 50 min [1, 7]: 0.5; Average Viability CFU/ml 50 min [1, 8]: 8850000 CFU/ml; Log Reduction 50 min [1, 8]: 0.4; Average Viability CFU/ml 50 min [1, 9]: 7950000 CFU/ml; Log Reduction 50 min [1, 9]: 0.5; Average Viability CFU/ml 50 min [1, 10]: 8700000 CFU/ml; Log Reduction 50 min [1, 10]: 0.5"
CC(C)[C@H](N)C(=O)O [L-Valine],4.7,0.0,4.8,0.0,0.0,0.0,0.0,0.0,104500,2.4,0,23100000,,,,,,,"Average Viability CFU/ml 60 min [1, 12]: 0 CFU/ml; Log 10 (CFU + 1) Survivors 60 min [1, 12]: 0.0; Log Reduction 60 min [1, 12]: 7.4; Average Viability CFU/ml 50 min [1, 10]: 104500 CFU/ml; Log Reduction 50 min [1, 10]: 2.4; Average Viability CFU/ml 50 min [1, 13]: 104500 CFU/ml; Log Reduction 50 min [1, 13]: 2.4"
N[C@H](Cc1c[nH]c2ccccc12)C(=O)O [D-Tryptophan],,,,,,,,,,,,22600000,,,,,,,"Average Viability CFU/ml 60 min [1, 14]: 19700000 CFU/ml; Log Reduction 60 min [1, 14]: 0.1; log reduction at 5000 µM [2]: 0.1"
NC(=O)CC[C@@H](N)C(=O)O [D-Glutamine],7.3,7.0,7.2,7.0,5.0,0.0,6.8,4.0,14750000,0.2,0.1,20500000,,,,,,,"Average Viability CFU/ml 60 min [1, 5]: 18 CFU/ml; Log Reduction 60 min [1, 5]: 6.1; Average Viability CFU/ml 50 min [1, 7]: 15500000 CFU/ml; Log Reduction 50 min [1, 7]: 0.2; Average Viability CFU/ml 50 min [1, 9]: 15050000 CFU/ml; Log Reduction 50 min [1, 9]: 0.3"
COC(=O)[C@@H](N)CCCCN.Cl.Cl [L-Lysine methyl ester dihydrochloride],,,,,,,,,,,,,0,7.4,21500000,,,,log reduction at 5000 µM [2]: 0
CC(C)C[C@H](N)C(=O)O [L-Leucine],4.1,0.0,3.9,0.0,0.0,0.0,0.0,0.0,214500,2.1,0.1,18700000,,,,0,0.0,7.3,"Average Viability CFU/ml 50 min [1, 7]: 200500 CFU/ml; Log Reduction 50 min [1, 7]: 2.1; Average Viability CFU/ml 50 min [1, 18]: 204000 CFU/ml; Log Reduction 50 min [1, 18]: 2.1; Average Viability CFU/ml 50 min [1, 13]: 200500 CFU/ml; Log Reduction 50 min [1, 13]: 2.1"
CC(C)CC(N)CC(=O)O (racemic) [DL-Beta-homoleucine],,,,,,,,,,,,,0,7.4,20500000,,,,"log reduction at 5000 µM [2, 16]: 0"
COC(=O)[C@@H]1CCCN1.Cl [L-Proline methyl ester hydrochloride],,,,,,,,,,,,,0,7.4,23200000,,,,"log reduction at 5000 µM [2, 16]: 0"
N[C@@H](Cc1ccc(O)cc1)C(=O)O [L-Tyrosine],7.3,7.1,7.3,7.0,7.3,5.8,7.3,7.2,,,0,21600000,,,,630000,5.8,1.5,"Average Viability CFU/ml 50 min [1, 8]: 890000 CFU/ml; Log Reduction 50 min [1, 8]: 1.4; Average Viability CFU/ml 50 min [1, 9]: 1450000 CFU/ml; Log Reduction 50 min [1, 9]: 1.3"
N[C@@H](CS)C(=O)O [L-Cysteine],,,,,,,,,,,0,22400000,,,,,,,"Average Viability CFU/ml 60 min [1, 12]: 17400000 CFU/ml; Log 10 (CFU + 1) Survivors 60 min [1, 12]: 7.2; Log Reduction 60 min [1, 12]: 0.1"
C[C@@H](N)C(=O)O [D-Alanine],7.3,3.7,7.3,6.7,6.8,0.6,7.3,0.0,,,0,19600000,,,,0,0.0,7.3,"Average Viability CFU/ml 50 min [1, 8]: 1900000 CFU/ml; Log Reduction 50 min [1, 8]: 1.1"
CCOC(=O)CCN.Cl [Beta-Alanine ethyl ester hydrochloride],,,,,,,,,,,,,1195000,1.3,23100000,,,,log reduction at 5000 µM [2]: 0
O=C(O)c1cccnc1 [Nicotinic acid],,,,,,,,,,,0,23200000,,,,4150000,6.6,0.7,
